What was measured:
[1] = system: Aβ40 and Aβ42; experiment: Secreted Aβ ELISA in CHO cells expressing Swedish APP mutant; format: cell-based; conditions: transient transfection, vs vector cDNA, FIG. 4B
Protocol: CHO cells expressing Swedish APP mutant were transiently transfected with vector cDNA (vector), full length E-cadherin (E-cadherin), a cDNA construct encoding the transmembrane and ectodomain sequence of E-cadherin (EC0) or a cDNA expressing the entire cytoplasmic sequence of E-cadherin (CTF2). Secreted Aβ40 and Aβ42 were determined by ELISA. Each value is a mean±SD from three assays each performed in duplicate. […] Expression of transfected proteins in swCHO cells was monitored by Western blotting.

[2] = system: N-cadherin; experiment: N-Cad/CTF2 production in rat primary neuronal cultures after stimulation; format: cell-based; parameters: N-Cad/CTF2 production on stimulation / K+-induced increase in N-Cad/CTF2 / L-glutamate-induced increase in N-Cad/CTF2: unit of the concentration uncertain; conditions: for N-Cad/CTF2 production on stimulation: 15 minutes stimulation with KCl (50 (unit uncertain)), L-Glutamate (50 (unit uncertain)) or NMDA (50 (unit uncertain))
Protocol: Primary, neuronal cultures. Mixed hippocampal and cortical neuronal cultures were prepared from E18 mouse or rat brains as described by Banker and Goslin (1991) Culturing Nerves Cells, London, MIT Press. Neurons were maintained 10 days in vitro in glial conditioned MEM containing 2% glucose and N2 supplements as described by Bottenstein and Sato (1979) Proc. Natl. Acad. Sci. USA 76: 514-517, and then were stimulated for 15 minutes with Mg2+-free Hanks' balanced salt solution (HBSS, Sigma) containing KCl (50 mM), L-Glutamate ([…]) or NMDA ([…]). D-APV ([…]) was applied 15 minutes before stimulation.
In vitro γ-secretase-like ε-cleavage assay. Cells were washed in PBS, resuspended in 1 ml of 4° C. hypotonic buffer (10 mM MOPS, pH 7.0, 10 mM KCl) and homogenized on ice. A post-nuclear supernatant was prepared by centrifugation at 1000×g for 15 minutes at 4° C. Crude membranes were isolated from the post-nuclear supernatant by centrifugation at 16,000×g for 40 minutes at 4° C. The membranes were then resuspended in […] of assay buffer (150 mM sodium citrate, pH 6.4, 1× Complete protease inhibitor cocktail), and incubated at 37° C. for 2 hours. Samples were either analyzed directly by WB or separated into pellet (P100) and supernatant (S100) fractions by ultracentrifugation for 1 hour at 100,000×g at 4° C. The S100 and P100 fractions were then analyzed by WB.
Rat brain neurons were pre-incubated in the absence (−) or presence (+) of D-APV and then stimulated with either KCl, L-glutamate (L-gly) or NMDA. Membranes from these neurons were used in in vitro assays for production of N-Cad/CTF2.

[3] = system: E-cadherin/catenin cytoskeletal complex; experiment: Ionomycin-induced CAJ disassembly in A431 cells, subcellular fractionation and Western blot; format: cell-based, human; conditions: ionomycin 10 μM, absence of inhibitor
Protocol: Subcellular fractionation. Confluent A431 cells (one 100 mm dish) were rinsed and scraped with 4° C. phosphate-buffered saline (PBS). Cells were then placed into 1 ml of buffer A (20 mM Tris-HCl [pH 7.5], 0.25 M sucrose, 10 mM EGTA, 2 mM EDTA, 1× Complete protease inhibitor cocktail, Roche), passed through a 27 gauge needle 10 times, and the obtained cell lysate was centrifuged at 500×g for 10 min at 4° C. The supernatant was then centrifuged at 120,000×g for 45 min at 4° C. to separate the cytosolic and crude membrane fractions. The pellet (crude membrane fraction) was washed twice with buffer A and resuspended by sonication in […] of buffer A containing 1% Triton X-100. The suspension was incubated at 4° C. for 30 min and then centrifuged at 120,000×g for 45 min at 4° C. to separate the membrane and Triton X-100-insoluble fractions. The pellet (Triton X-100-insoluble fraction) was washed twice with buffer A and solubilized by sonication in RIPA buffer. […] of proteins from the different fraction were analyzed by SDS-PAGE.
In stable cell-cell adhesion, the E-cadherin/β-catenin complex of the CAJ is anchored to the actin cytoskeleton via catenin and this association is manifested by the insolubility of the complex components in Triton X-100 (Baki et al., (2001)). Induction of apoptosis or calcium influx disrupts cadherin-mediated cell-cell adhesion by cleaving cadherin and disassembling the CAJ complexes. To determine whether the γ-secretase cleavage of E-cadherin is involved in the CAJ disassembly, calcium influx was induced with ionomycin (10 μM) in A431 cells preincubated for 30 minutes in the absence or presence of the γ-secretase inhibitor L-685,458. Cell extracts were fractionated, and analyzed on Western blots with antibodies against cytoplasmic E-cadherin C36 or β- and α-catenins. […] In addition, L-685,458 delayed the ionomycin-induced decrease of cytoskeletal β-catenin and α-catenin and inhibited their release to the soluble cytosol.

[4] = system: A431 cells; experiment: Laser scanning confocal microscopy of ionomycin-induced cell-cell dissociation; format: cell-based, human; conditions: ionomycin 45 minutes
Protocol: (§1) Immunoprecipitations (IPs), immunoblotting, immunofluorescence and confocal microscopy. For WB analysis of cell extracts, cells were washed with PBS and then solubilized in RIPA buffer. For IPs cells were solubilized in Hepes buffer (25 mM Hepes [pH 7.4], 150 mM NaCl, 1× Complete protease inhibitor cocktail, Roche) containing 1% digitonin (IPs with I-R222 and PI-R222 antibodies) or 1% Triton X-100 (IPs with β-catenin and desmoglein antibodies). Following centrifugation at 17,000×g for 10 min, supernatants (1 mg protein) were pre-cleared with protein A- or protein G-agarose (Pierce) for 2 hours. Supernatants were then incubated with antibodies overnight at 4° C. and treated for 2 hours with protein A-agarose (polyclonal antibodies) or with protein G-agarose (monoclonal antibodies). IPs were washed with Hepes buffer containing either 1% digitonin or 1% Triton X-100 and analyzed by SDS-PAGE. Immunofluorescence and confocal microscopy was performed as described by Georgakopoulos et al., (1999). Briefly, cells were plated on 22×22 mm collagen-coated glass coverslips, fixed in cold methanol for 10 min at −20° C. Following washing in TBS (25 mM Tris-HCl [pH 7.4], 150 mM NaCl), cells were treated with 10% goat serum in SuperBlock (Pierce) for 1 hour, incubated overnight with primary antibody (1:100), washed in TBS and then were incubated with species specific Alexa Fluor™ secondary antibody conjugates (Molecular Probes). Cells were washed with TBS, mounted with Prolong antifade kit (Molecular Probes), and photographed on a Leica confocal laser scanning microscope.
The PS1/γ-secretase role in the disassembly of CAJ was further examined using laser scanning confocal microscopy (LSCM). A431 cells were pre-incubated for 30 minutes in the absence or presence of L-685,458 and then treated for 45 minutes with ionomycin. Following the ionomycin-induced cell-cell dissociation, the distribution of PS1, E-cadherin, β-catenin and α-catenin was analyzed by LSCM using the constant detector setting. […]

[5] = system: E-cadherin; experiment: Ionomycin treatment of A431D cells transfected with WT or GGG759-761AAA mutant E-cadherin; format: cell-based; conditions: ionomycin 45 minutes
Protocol: Cell Cultures and transfections. Cells were grown in Dulbecco's Modified Eagle Medium (DMEM) plus 10% fetal bovine serum, penicillin and streptomycin in 5% CO2 at 37° C. Fibroblast cell lines derived either from wild-type (WT) (PS1+/+) or PS1 knock-out (PS1−/−) mice were stably transfected with human E-cadherin as described by Baki et al., (2001). A431 cells were from American Type Culture Collection. Stable transfectants of PS1 cDNA in HEK293 cells were prepared as described by Georgakopoulos et al., (1999). A431D cells stably transfected with wild-type or GGG759-761AAA mutant E-cadherin were provided by Dr. A. B. Reynolds.
A431D cells stably transfected with WT E-cadherin or with the E-cadherin mutant were incubated in the absence or presence of ionomycin for 45 minutes and RIPA extracts were probed on Western blots with C36 antibody. Cytosolic fractions were probed with antibodies against E-cadherin (C36), β-catenin or α-catenin. […] Furthermore, no soluble E-Cad/CTF2 was detected in mutant transfectants either in the presence or absence of ionomycin. Thus, PS1 binding to E-cadherin is required for the PS1/γ-secretase cleavage of E-cadherin and for the release of E-Cad/CTF2, β-catenin and α-catenin to the soluble cytosol.

[6] = system: N-cadherin; experiment: N-cadherin processing in fibroblast cultures (Western blot, C32); format: cell-based, mouse; conditions: GM6001, FIG. 7B lanes 5 and 6
Protocol: Extracts from PS1+/+ or PS1−/− mouse embryos were probed on WBs with either anti-cytoplasmic N-cadherin antibody (FIG. 7A, upper panel) or anti-PS I/CTF antibody 33B10 (FIG. 7A, lower panel). Extracts from PS1+/+ or PS1−/− fibroblast cultures were incubated for 16 hours in the absence or presence of DMSO, L-685,458 (0.5 μM) and probed on WBs with either C32 or 33B10 antibodies.

[7] = system: E-cadherin; experiment: E-cadherin cleavage in staurosporine-treated (apoptotic) A431 cells (Western blot); format: cell-based, human
Protocol: Cell Cultures and transfections. Cells were grown in Dulbecco's Modified Eagle Medium (DMEM) plus 10% fetal bovine serum, penicillin and streptomycin in 5% CO2 at 37° C. […] A431 cells were from American Type Culture Collection. […] A431D cells stably transfected with wild-type or GGG759-761AAA mutant E-cadherin were provided by Dr. A. B. Reynolds.
as §1
Conditional media (20 μl) from A431 cells cultured in the absence or presence of […] and treated with SDS as above were probed on Western blots with anti-E-cadherin ectodomain antibody H108.

CTF-2: cDNA expressing the entire cytoplasmic sequence of E-cadherin
secreted Aβ40 [1]: significantly inhibited | secreted Aβ42 [1]: significantly inhibited

N[C@@H](CCC(=O)O)C(=O)O [L-glutamate, L-Glutamate]
N-Cad/CTF2 production on stimulation [2]: induced an increase in N-Cad/CTF2

D(−)-2-amino-5-phosphonovalerate [D-APV]
K+-induced increase in N-Cad/CTF2 ([2]; D-APV (100 (unit uncertain)) applied 15 minutes before stimulation with KCl): inhibited | L-glutamate-induced increase in N-Cad/CTF2 ([2]; D-APV (100 (unit uncertain)) applied 15 minutes before stimulation with L-glutamate): blocked

C[C@H](CCC(=O)O)C[C@H](C)C[C@H](C)C(=O)/C=C(\O)[C@H](C)C[C@H](C)C/C=C/[C@@H](C)[C@@H](O)[C@@H](C)[C@@H](O)C[C@@H]1CC[C@@](C)([C@H]2CC[C@@](C)([C@@H](C)O)O2)O1 [ionomycin]
cytoskeletal (Triton X-100-insoluble) fraction of full-length E-cadherin and E-Cad/CTF1 [3]: time-dependent decrease | cytoskeletal association (Triton X-100-insoluble fraction) of β-catenin and α-catenin [3]: decreased | soluble cytosolic E-Cad/CTF2 [3]: corresponding increase | soluble cytosolic levels of β-catenin and α-catenin [3]: significant increase | N-Cad/CTF2 ([2]; treatment of rat primary neuronal cultures with ionomycin): increased N-Cad/CTF2 | cell-cell adhesion [4]: disrupted cell-cell adhesion | plasma membrane staining of PS1, E-cadherin, β-catenin and α-catenin epitopes [4]: decreased plasma membrane staining of all epitopes | soluble E-Cad/CTF2, β-catenin and α-catenin in cytosolic fractions ([5]; cells expressing WT E-cadherin): significant increase | soluble β- or α-catenin in cytosolic fractions ([5]; cells expressing mutant E-cadherin GGG759-761AAA): no ionomycin-induced increase

[Cl-].[K+] [KCl]
N-Cad/CTF2 production on stimulation [2]: stimulated

CNC(=O)[C@H](Cc1c[nH]c2ccccc12)NC(=O)[C@@H](CC(=O)NO)CC(C)C [GM6001]
N-Cad/CTF1 [6]: decreased | full length N-cadherin [6]: increased | production of the 38 kDa fragment (E-Cad/CTF1) ([7]; 30 minutes preincubation with GM6001 (2.5 μM), then STS 6 hours): inhibited | secreted 95 kDa fragment (E-Cad/NTF1), effect of MMP inhibitor in STS-treated cells ([7]; antibody H108): inhibited

Z-DEVD-FMK
29 kDa fragment (E-Cad/CTT3) ([7]; 30 minutes preincubation with Z-DEVD-FMK (50 μM), then STS 6 hours): inhibited

Reference: patent US7884067B2, “Peptides derived from cadherin and methods of use thereof” (Mount Sinai School of Medicine of New York University, priority 2001, dated 2011)
